# Where two headings read alike, the source gives them in different places.
# T1: CXCR2 (Homo sapiens, UniProt P25025)
# T1 construct: endogenous in cells; host or cells: peripheral blood neutrophils of trial subjects
# T1 sequence (P25025 1-360): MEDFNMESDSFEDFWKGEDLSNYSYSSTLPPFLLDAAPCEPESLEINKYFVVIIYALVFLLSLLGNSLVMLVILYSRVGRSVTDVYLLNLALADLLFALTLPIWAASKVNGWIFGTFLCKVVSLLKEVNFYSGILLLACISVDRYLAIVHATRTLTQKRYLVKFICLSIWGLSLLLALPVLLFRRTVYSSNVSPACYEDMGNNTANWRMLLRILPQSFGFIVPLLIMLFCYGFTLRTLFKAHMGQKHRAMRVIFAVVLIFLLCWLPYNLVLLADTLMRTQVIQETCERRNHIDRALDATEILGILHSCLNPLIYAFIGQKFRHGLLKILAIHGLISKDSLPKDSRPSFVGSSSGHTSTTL
# Tests used:
# [1] = system: graft cell subsets (T cells, B cells, NK cells, TNC); settings: cited from earlier work
# CD34+ cells [2] = settings: historical plerixafor alone data, Devine et al., Blood 2008; cited from earlier work
# CD34+CD90+CD45RA− cells [3] = assay: Phase 1 clinical trial: mobilization of CD34+CD90+CD45RA− cells into peripheral blood, multicolor flow cytometry
# Procedure: (§1) The dose of MGTA-145 was one of 0.0075 mg/kg, 0.015 mg/kg, 0.03 mg/kg, 0.075 mg/kg, 0.15 mg/kg, or 0.3 mg/kg. […] The dose of MGTA-145 was one of 0.015 mg/kg, 0.03 mg/kg, 0.075 mg/kg, or 0.15 mg/kg. […] The dose of MGTA-145 was one of 0.03 mg/kg or 0.075 mg/kg.
# (§2) Mobilization of white blood cells (WBCs), neutrophils, lymphocytes, basophils, and eosinophils was quantified by automated hematology analyzer.
# CD34+ cells [4] = assay: Phase 1 clinical trial: mobilization of CD34+ cells into peripheral blood, multicolor flow cytometry
# [5] = system: hematopoietic stem and progenitor cell mobilization; settings: U.S. Pat. Nos. 6,080,398 and 6,447,766; cited from earlier work
# CXCR2 = target: T1, CXCR2; assay: Phase 1 clinical trial: CXCR2 expression on peripheral blood neutrophils; format: in vivo
# MMP-9 = assay: Phase 1 clinical trial: plasma MMP-9 and TIMP-1, sandwich immunoassay; format: in vivo, human; settings: MGTA-145 monotherapy, all six doses
# Procedure: (§3) Additionally, blood samples were analyzed by multicolor flow cytometry to quantify changes in expression of neutrophil activation markers such as L-selectin, CD11b, CD18, and CD66. Additionally, matrix metalloproteinase 9 (MMP-9), a neutrophil protease believed to mediate mobilization in response to MGTA-145, as well as its cognate inhibitor, TIMP-1, were quantified in plasma samples collected at the same time points by sandwich immunoassay.
# CD34+CD90+CD45RA− cells [6] = assay: Phase 1 Part D: apheresis collection of CD34+CD90+CD45RA− cells; settings: for CD90+/kg (CD34+CD90+CD45RA− cells), mean / CD90+/kg (CD34+CD90+CD45RA− cells), median: 2 h stagger after plerixafor; for CD90+ (% of CD34+): 2 h stagger after plerixafor (Table 13)
# Procedure: as §1
# (§4) The table documents the body weight of each subject, the total CD34+ cells that were obtained through the apheresis procedure, the normalized CD34+ cells/kg of body weight, and the percentage of CD34+ cells that were CD90+CD45RA−.
# white blood cells (WBCs) = assay: Phase 1 clinical trial: mobilization of white blood cells, automated hematology analyzer; settings: MGTA-145 monotherapy
# Procedure: as §1, §2
# [7] = system: neutrophil activation markers (L-selectin, CD11b, CD18, CD66); assay: Phase 1 clinical trial: neutrophil activation markers, multicolor flow cytometry; format: in vivo, human; settings: MGTA-145 monotherapy
# Procedure: as §3
# neutrophils = assay: Phase 1 clinical trial: mobilization of neutrophils, automated hematology analyzer; settings: MGTA-145 monotherapy
# Procedure: as §1, §2
# CD45.2 mice = assay: Primary and secondary transplantation of mobilized mouse cells at limit dilution (CRU); format: in vivo; settings: FIG. 25, right panel; versus the other cohorts
# Source text: Mice (CD45.1) were mobilized according to the scheme shown in FIG. 24 and mobilized cells transplanted into CD45.2 mice at limit dilution.
# CD34+ cells [8] = assay: Phase 1 Part D: apheresis collection yield of CD34+ cells
# Procedure: as §1, §4
# [9] = Phase 1 clinical trial: treatment emergent adverse events; settings: Part A; MGTA-145 0.0075-0.3 mg/kg, n = 24
# [10] = system: neutrophil activation markers (L-selectin, CD11b, CD18, CD66); settings: 5 days of G-CSF; Falanga et al., Blood 1999; cited from earlier work
# [11] = G-CSF; Pulsiper et al. (2009) Blood; cited from earlier work
# [12] = Chen et al., 2019, 2 LP for plerixafor (N = 50+), 1 LP for G-CSF (N = 112+)
# [13] = Devine et al, 2008, yield of 1 LP, plerixafor N = 24, G-CSF N = 8
# [14] = Part B, pooled placebo + plerixafor on Day 1
# [15] = Part C, pooled placebo + plerixafor on Day 1
# [16] = Pooled B + C, pooled placebo + plerixafor on Day 1
# [17] = plerixafor alone, MGTA-145 dose 0
# [18] = higher doses (0.075, 0.15, 0.3 mg/kg), 2 hours post administration
# [19] = lower doses (0.0075, 0.015, 0.03 mg/kg), between 1 and 2 hours post administration
# [20] = MGTA-145 monotherapy 0.03 mg/kg
# [21] = MGTA-145 monotherapy, the other doses
# [22] = Part A, MGTA-145 on Day 1, 0.03 mg/kg
# [23] = Part A, MGTA-145 on Day 1, 0.3 mg/kg
# [24] = 0.03 mg/kg MGTA-145 and plerixafor (staggered 2 hour)
# [25] = G-CSF, N = 78 healthy donors, Chaidos et al, Blood 2012
molecule,measurement,setting,value
"c1cc(CN2CCCNCCNCCCNCC2)ccc1CN1CCCNCCNCCCNCC1 [plerixafor, 1,1′-[1,4-phenylenebis(methylene)]-bis-1,4,8,11-tetra-azacyclotetradecane]","Graft CD3+, median",[1]; [12],6e+08 kg⁻¹
same,"Graft CD4+, median",[1]; [12],3.6e+08 kg⁻¹
same,"Graft CD8+, median",[1]; [12],2.2e+08 kg⁻¹
same,"Graft CD19+, median",[1]; [12],1.5e+08 kg⁻¹
same,"Graft CD34+, median",[1]; [12],4.7e+06 kg⁻¹
same,"Graft CD56+, median",[1]; [12],4e+07 kg⁻¹
same,"Graft CD3+, median",[1]; [13],4.6e+08 kg⁻¹
same,"Graft CD4+, median",[1]; [13],3.2e+08 kg⁻¹
same,"Graft CD8+, median",[1]; [13],1.3e+08 kg⁻¹
same,"Graft CD34+, median",[1]; [13],2.9e+06 kg⁻¹
same,"Graft CD56+, median",[1]; [13],3e+07 kg⁻¹
same,"Graft CD19+, median","[1]; Devine et al, 2008, yield of 1 LP, plerixafor N = 24",1e+08 kg⁻¹
same,Patients with peak CD34+ ≥20 cells/μL,CD34+ cells [2],28%
same,Patients with peak CD34+ ≥40 cells/μL,CD34+ cells [2],4%
same,Peak CD34+CD90+CD45RA− mobilization (median),CD34+CD90+CD45RA− cells [3]; plerixafor alone,8 cells/μL
same,Peak CD34+ (#/μL) Median,"CD34+ cells [4]; Part B, plerixafor alone, MGTA-145 dose 0",26 #/μL
same,Peak CD34+ (#/μL) Median,CD34+ cells [4]; [14],26 #/μL
same,Percent ≥20/μL peak CD34+,CD34+ cells [4]; [14],64%
same,Peak CD34+ (#/μL) Median,"CD34+ cells [4]; Part C first day, plerixafor alone, MGTA-145 dose 0",18 #/μL
same,Peak CD34+ (#/μL) Median,CD34+ cells [4]; [15],18 #/μL
same,Percent ≥20/μL peak CD34+,CD34+ cells [4]; [15],0%
same,Percent ≥20/μL peak CD34+,"CD34+ cells [4]; Part C, pooled placebo + plerixafor on Day 2",50%
same,Peak CD34+ (#/μL) Median,"CD34+ cells [4]; Pooled B + C, plerixafor alone, MGTA-145 dose 0",20 #/μL
same,Peak CD34+ (#/μL) Median,CD34+ cells [4]; [16],23 #/μL
same,Percent ≥20/μL peak CD34+,CD34+ cells [4]; [16],56%
same,Tmax (time of the peak CD34+ level) Median,CD34+ cells [4]; plerixafor alone,8 h
same,Peak CD34+/μL (FC vs. baseline) Median,CD34+ cells [4]; [17],15
same,Peak CD34+/μL Median,CD34+ cells [4]; [17],20 µL⁻¹
Gro-β T N65D: Gro-β T variant with aspartic acid in place of asparagine at position 65,Potency of hematopoietic stem and progenitor cell mobilization,[5],potency that is substantially greater than that of Gro-β T
MGTA-145: CXCR2 agonist; truncated Gro-β with deletion of the first four N-terminal amino acids (SEQ ID NO: 2),CXCR2 expression recovery prior to the second dose,"CXCR2; MGTA-145 0.07 mg/kg, staggered dosing, two consecutive days",~80 % of baseline
same,CXCR2 on peripheral neutrophils,CXCR2; MGTA-145 monotherapy,"rapid downregulation of its target receptor, CXCR2, on peripheral neutrophils, followed by recovery over 24 hours"
same,Molar ratio MMP-9:TIMP-1,MMP-9,rapid increase 30 minutes post-administration
same,Plasma levels of MMP-9,MMP-9,increased sharply within 30 minutes post-administration
same,"CD90+/kg (CD34+CD90+CD45RA− cells), mean",CD34+CD90+CD45RA− cells [6]; MGTA-145 0.03 mg/kg,1.3 ×10^6
same,"CD90+/kg (CD34+CD90+CD45RA− cells), median",CD34+CD90+CD45RA− cells [6]; MGTA-145 0.03 mg/kg,1.5 ×10^6
same,CD90+ (% of CD34+),"CD34+CD90+CD45RA− cells [6]; MGTA-145 0.03 mg/kg, 0.03 mg/kg",31%
same,"CD90+/kg (CD34+CD90+CD45RA− cells), mean",CD34+CD90+CD45RA− cells [6]; MGTA-145 […],1.4 ×10^6
same,"CD90+/kg (CD34+CD90+CD45RA− cells), median",CD34+CD90+CD45RA− cells [6]; MGTA-145 […],1.2 ×10^6
same,CD90+ (% of CD34+),"CD34+CD90+CD45RA− cells [6]; MGTA-145 […], […]",37%
same,Initial plateau of WBC mobilization,white blood cells (WBCs); [18],6-10 ×10^3 cells/μL
same,Peak mobilization of WBCs,white blood cells (WBCs); [19],15-17 ×10^3 cells/μL
same,Change relative to baseline of neutrophil activation marker CD66,[7]; all doses except the highest (0.3 mg/kg),< 2 fold
same,Change relative to baseline of neutrophil activation marker L-selectin,[7]; all six doses,< 2 fold
same,Change relative to baseline of neutrophil activation markers CD11b and CD18,[7]; all six doses,< 2 fold
same,Fold increase of CD34+CD90+CD45RA− cells,CD34+CD90+CD45RA− cells [3]; [20],~8.3 fold
same,Peak concentration of CD34+CD90+CD45RA− cells,CD34+CD90+CD45RA− cells [3]; [20],~3 cells/μL
same,Time of peak CD34+CD90+CD45RA− mobilization post administration,"CD34+CD90+CD45RA− cells [3]; MGTA-145 monotherapy, six doses",30 min
same,Fold increase of CD34+CD90+CD45RA− cells,CD34+CD90+CD45RA− cells [3]; [21],2-3.5 fold
same,Peak concentration of CD34+CD90+CD45RA− cells,CD34+CD90+CD45RA− cells [3]; [21],1-1.6 cells/μL
same,Potency of hematopoietic stem and progenitor cell mobilization,[5],potency superior to that of Gro-β by multiple orders of magnitude
same,Initial plateau of neutrophil mobilization,neutrophils; [18],5-8 ×10^3 cells/μL
same,Peak mobilization of neutrophils,neutrophils; [19],13-15 ×10^3 cells/μL
same,Fold increase of CD34+ cells,CD34+ cells [4]; [20],7 fold
same,Peak concentration of CD34+ cells,CD34+ cells [4]; [20],~10 cells/μL
same,Time of peak CD34+ mobilization post administration,"CD34+ cells [4]; MGTA-145 monotherapy, single dose, across the six doses 0.0075-0.3 mg/kg",about 30 minutes
same,Fold increase of CD34+ cells,CD34+ cells [4]; [21],2-3 fold
same,Peak concentration of CD34+ cells,"CD34+ cells [4]; MGTA-145 monotherapy, the other doses (0.0075, 0.015, 0.075, 0.15, 0.3 mg/kg)",~5 cells/μL
same,Peak CD34+ (#/μL) Median,CD34+ cells [4]; [22],12 #/μL
same,Percent ≥20/μL peak CD34+,CD34+ cells [4]; [22],0%
same,Peak CD34+ (#/μL) Median,CD34+ cells [4]; [23],3 #/μL
same,Percent ≥20/μL peak CD34+,CD34+ cells [4]; [23],0%
same,"Engraftment rates, secondary transplantation",CD45.2 mice,vastly improved engraftment rates
same,"CD34+/kg, median",CD34+ cells [8]; [24],4.3 ×10^6 cells
same,"Total CD34+ Yield, median",CD34+ cells [8]; [24],321 (239-500) ×10^6 cells
same,"CD34+/kg, mean","CD34+ cells [8]; MGTA-145 0.03 mg/kg, 2 h stagger after plerixafor",4.1 ×10^6
same,Back pain/Musculoskeletal pain,[9],19 n (%)
same,Subjects with any drug related TEAE,[9],19 n (%)
"G-CSF: standard mobilization agent, five days of Filgrastim (G-CSF) (protein, UniProt P09919 31-207, looked up, filgrastim) Granulocyte …: TPLGPASSLPQSFLLKCLEQVRKIQGDGAALQEKLVSECATYKLCHPEELVLLGHSLGIPWAPLSSCPSQALQLAGCLSQLHSGLFLYQGLLQALEGISPELGPTLDTLQLDVADFATTIWQQMEELGMAPALQPTQGAMPAFASAFQRRAGGVLVASHLQSFLEVSYRVLRHLAQP","Graft CD3+, median",[1]; [12],2.5e+08 kg⁻¹
same,"Graft CD4+, median",[1]; [12],1.5e+08 kg⁻¹
same,"Graft CD8+, median",[1]; [12],7e+07 kg⁻¹
same,"Graft CD19+, median",[1]; [12],5e+07 kg⁻¹
same,"Graft CD34+, median",[1]; [12],4.2e+06 kg⁻¹
same,"Graft CD56+, median",[1]; [12],1e+07 kg⁻¹
same,"Graft CD3+, median",[1]; [13],1.3e+08 kg⁻¹
same,"Graft CD4+, median",[1]; [13],1.1e+08 kg⁻¹
same,"Graft CD8+, median",[1]; [13],4e+07 kg⁻¹
same,"Graft CD34+, median",[1]; [13],4.2e+06 kg⁻¹
same,"Graft CD56+, median",[1]; [13],2e+07 kg⁻¹
same,"TNC/kg donor weight, median (range)","[1]; G-CSF, N = 40 healthy donors, Singhal et al, BMT 2000",7.2 (3.2-14.0) ×10^8 cells
same,"Frequency of CD3+ T cells in graft, median",[1]; [25],45.3 % of CD45+
same,"Frequency of CD4+ T cells in graft, median",[1]; [25],29.8 % of CD45+
same,"Frequency of CD8+ T cells in graft, median",[1]; [25],11.8 % of CD45+
same,"Frequency of CD19+ B cells in graft, median",[1]; [25],10.5 % of CD45+
same,"Frequency of CD56+ NK cells in graft, median",[1]; [25],3.2 % of CD45+
same,"Frequency of Tregs in graft, median",[1]; [25],3.5 % of CD4+ T cells
same,"Frequency of iNKT cells in graft, median",[1]; [25],0.04 % of CD3+
same,Increase in neutrophil activation markers,[10],~2.7 fold
same,Tolerability,[11],"Majority with bone pain,"
